Source: US4684664A, “Derivatives of β-(4-isocyano-1,2,3,4-diepoxycyclopentyl) acrylic acid” (Kureha Kagaku Kogyo Kabushiki Kaisha, priority 1984, dated 1987)
≈ marks a conversion by molar mass, not a printed value.

How the values were obtained:
Format in all cases: cell-based
[1] = tested on: Staphylococcus aureus FDA 209PJc-1; test: Antibacterial activity, agar-dilution MIC, organism No. 1; settings: Staphylococcus aureus, FDA209PJC1; Organism No. 1, bouillon-agar; read-out: Minimum Inhibitory Concentration
In short: (§1)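 Testing uses agar dilution in bouillon agar. MIC = lowest inhibiting concentration, μg/ml medium.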

[2] = tested on: Staphylococcus aureus Terajima; test: Antibacterial activity, agar-dilution MIC, organism No. 2; settings: Staphylococcus aureus; Organism No. 2, bouillon-agar; read-out: Minimum Inhibitory Concentration
In short: as §1

[3] = tested on: Staphylococcus aureus MS 353; test: Antibacterial activity, agar-dilution MIC, organism No. 3; settings: Staphylococcus aureus, MS353; Organism No. 3, bouillon-agar; read-out: Minimum Inhibitory Concentration
In short: as §1

[4] = tested on: Streptococcus pyogenes Cook; test: Antibacterial activity, agar-dilution MIC, organism No. 4; settings: Streptococcus pyogenes; Organism No. 4, bouillon-agar; read-out: Minimum Inhibitory Concentration
In short: as §1

[5] = tested on: Escherichia coli NIHJ-JC-2; test: Antibacterial activity, agar-dilution MIC, organism No. 5; settings: Escherichia coli, NIHJJC2; Organism No. 5, bouillon-agar; read-out: Minimum Inhibitory Concentration
In short: as §1

[6] = tested on: Escherichia coli K12 C600 IAM 1264; test: Antibacterial activity, agar-dilution MIC, organism No. 6; settings: Escherichia coli, IAM1264; Organism No. 6, bouillon-agar; read-out: Minimum Inhibitory Concentration
In short: as §1

[7] = tested on: Klebsiella pneumoniae PCI-602; test: Antibacterial activity, agar-dilution MIC, organism No. 7; settings: Klebsiella pneumoniae, PCI602; Organism No. 7, bouillon-agar; read-out: Minimum Inhibitory Concentration
In short: as §1

[8] = tested on: Salmonella typhimurium IID 971; test: Antibacterial activity, agar-dilution MIC, organism No. 8; settings: Salmonella enterica; Organism No. 8, bouillon-agar; read-out: Minimum Inhibitory Concentration
In short: as §1

Salmonella typhi 901 = test: Antibacterial activity, agar-dilution MIC, organism No. 9; settings: Salmonella enterica, TYPHI, read-out: Minimum Inhibitory Concentration
In short: as §1

[9] = tested on: Salmonella paratyphi-A 1015; test: Antibacterial activity, agar-dilution MIC, organism No. 10; settings: Salmonella enterica, PARATYPHI, read-out: Minimum Inhibitory Concentration
In short: as §1

[10] = tested on: Salmonella shottmuelleri 8006; test: Antibacterial activity, agar-dilution MIC, organism No. 11; settings: Salmonella, 8006; Organism No. 11, bouillon-agar; read-out: Minimum Inhibitory Concentration
In short: as §1

[11] = tested on: Salmonella enteritidis G 14; test: Antibacterial activity, agar-dilution MIC, organism No. 12; settings: Salmonella enterica, ENTERITIDIS; Organism No. 12, bouillon-agar; read-out: Minimum Inhibitory Concentration
In short: as §1

[12] = tested on: Bacillus subtilis ATCC 6633; test: Antibacterial activity, agar-dilution MIC, organism No. 14; settings: Bacillus subtilis, ATCC6633; Organism No. 14, bouillon-agar; read-out: Minimum Inhibitory Concentration
In short: as §1

[13] = tested on: Pseudomonas aeruginosa IFO 3445; test: Antibacterial activity, agar-dilution MIC, organism No. 15; settings: Pseudomonas aeruginosa, IFO3445; Organism No. 15, bouillon-agar; read-out: Minimum Inhibitory Concentration
In short: as §1

[14] = tested on: Pseudomonas aeruginosa NCTC 10490; test: Antibacterial activity, agar-dilution MIC, organism No. 16; settings: Pseudomonas aeruginosa, NCTC10490; Organism No. 16, bouillon-agar; read-out: Minimum Inhibitory Concentration
In short: as §1

[15] = tested on: Pseudomonas aeruginosa PAO 1; test: Antibacterial activity, agar-dilution MIC, organism No. 17; settings: Pseudomonas aeruginosa, PAO1; Organism No. 17, bouillon-agar; read-out: Minimum Inhibitory Concentration
In short: as §1

[16] = tested on: Proteus morganii IFO 3848; test: Antibacterial activity, agar-dilution MIC, organism No. 18; settings: Morganella morganii, IFO3848; Organism No. 18, bouillon-agar; read-out: Minimum Inhibitory Concentration
In short: as §1

[17] = tested on: Proteus mirabilis IFO 3849; test: Antibacterial activity, agar-dilution MIC, organism No. 19; settings: Proteus mirabilis, IFO3849; Organism No. 19, bouillon-agar; read-out: Minimum Inhibitory Concentration
In short: as §1

Proteus vulgaris OX-19 = test: Antibacterial activity, agar-dilution MIC, organism No. 20; settings: Proteus vulgaris, OX19; Organism No. 20, bouillon-agar; read-out: Minimum Inhibitory Concentration
In short: as §1

Proteus vulgaris HX-19 = test: Antibacterial activity, agar-dilution MIC, organism No. 21; settings: Proteus vulgaris, HX19; Organism No. 21, bouillon-agar; read-out: Minimum Inhibitory Concentration
In short: as §1

[18] = tested on: Proteus rettgeri IFO 3850; test: Antibacterial activity, agar-dilution MIC, organism No. 22; settings: Providencia rettgeri, IFO3850; Organism No. 22, bouillon-agar; read-out: Minimum Inhibitory Concentration
In short: as §1

[19] = tested on: Enterobacter aerogenes ATCC 13048; test: Antibacterial activity, agar-dilution MIC, organism No. 23; settings: Klebsiella aerogenes, ATCC13048; Organism No. 23, bouillon-agar; read-out: Minimum Inhibitory Concentration
In short: as §1

Enterobacter cloacae 963 = test: Antibacterial activity, agar-dilution MIC, organism No. 24; settings: Enterobacter cloacae, 963; Organism No. 24, bouillon-agar; read-out: Minimum Inhibitory Concentration
In short: as §1

[20] = tested on: Micrococcus luteus ATCC 9341; test: Antibacterial activity, agar-dilution MIC, organism No. 25; settings: Micrococcus luteus, ATCC9341; Organism No. 25, bouillon-agar; read-out: Minimum Inhibitory Concentration
In short: as §1

[21] = tested on: Streptococcus pyogenes IFO 3340; test: Antibacterial activity, agar-dilution MIC, organism No. 26; settings: Streptococcus pyogenes, IFO3340; Organism No. 26, bouillon-agar; read-out: Minimum Inhibitory Concentration
In short: as §1

[22] = tested on: Streptococcus faecium IFO 3826; test: Antibacterial activity, agar-dilution MIC, organism No. 27; settings: Enterococcus faecium, IFO3826; Organism No. 27, bouillon-agar; read-out: Minimum Inhibitory Concentration
In short: as §1

[23] = tested on: Mycoplasma pneumoniae IID817; test: Antimycoplasmal activity, MIC by phenol red colour change, organism No. 28; settings: Mycoplasma, IID817; Organism No. 28, PPLO broth + 1% glucose, 37° C.; read-out: Minimum Inhibitory Concentration (MIC)
Procedure: Mycoplasma pneumoniae IID817 was used as the test microorganism in a culture medium prepared by adding 1% of glucose to "PPLO broth (manufactured by Difco Co.) liquid culture medium" at 37° C. with phenol red as an indicator, thereby culturing the test microorganism.

[24] = tested on: Candida albicans IAM 4905; test: Antifungal activity, agar-dilution MIC, organism No. 29; settings: Candida albicans, IAM4905; Organism No. 29, bouillon-agar; read-out: Minimum Inhibitory Concentration
In short: as §1

[25] = tested on: Aspergillus niger IFO 6342; test: Antifungal activity, agar-dilution MIC, organism No. 30; settings: Aspergillus niger, IFO6342; Organism No. 30, bouillon-agar; read-out: Minimum Inhibitory Concentration
In short: as §1

| Compound | MIC [1] [µg/mL] | MIC [2] [µg/mL] | MIC [3] [µg/mL] | MIC [4] [µg/mL] | MIC [5] [µg/mL] | MIC [6] [µg/mL] | MIC [7] [µg/mL] | MIC [8] [µg/mL] | MIC (Salmonella typhi 901) [µg/mL] | MIC [9] [µg/mL] | MIC [10] [µg/mL] | MIC [11] [µg/mL] | MIC [12] [µg/mL] | MIC [13] [µg/mL] | MIC [14] [µg/mL] | MIC [15] [µg/mL] | MIC [16] [µg/mL] | MIC [17] [µg/mL] | MIC (Proteus vulgaris OX-19) [µg/mL] | MIC (Proteus vulgaris HX-19) [µg/mL] | further results |
| --- | --- | --- | --- | --- | --- | --- | --- | --- | --- | --- | --- | --- | --- | --- | --- | --- | --- | --- | --- | --- | --- |
| [C-]#[N+]C12CC3(/C=C/C(=O)Nc4cccc(C)c4)OC3C1O2 (stereo not shown) [compound 38] | < 0.05 | 0.1 (≈ 0.354 µM) | < 0.05 | 6.25 (≈ 22.1 µM) | 12.5 (≈ 44.3 µM) | 12.5 (≈ 44.3 µM) | < 0.05 | 6.25 (≈ 22.1 µM) | 1.56 (≈ 5.53 µM) | < 0.05 | < 0.05 | 1.56 (≈ 5.53 µM) | 3.13 (≈ 11.1 µM) | > 200 | > 200 | > 200 | 12.5 (≈ 44.3 µM) | > 200 | 0.05 (≈ 0.177 µM) | 0.05 (≈ 0.177 µM) | MIC [18]: 3.13 µg/mL (≈ 11.1 µM); MIC [19]: > 200 µg/mL; MIC (Enterobacter cloacae 963): > 200 µg/mL; MIC [20]: < 0.05 µg/mL; MIC [21]: 0.39 µg/mL (≈ 1.38 µM); MIC [22]: 12.5 µg/mL (≈ 44.3 µM); MIC [23]: < 0.2 µg/mL; MIC [24]: 0.78 µg/mL (≈ 2.76 µM); MIC [25]: 1.56 µg/mL (≈ 5.53 µM) |
| [C-]#[N+]C12CC3(/C=C/C(=O)N(C(=O)NC4CCCCC4)C4CCCCC4)OC3C1O2 (stereo not shown) [Compound No. 25] | 0.1 (≈ 0.25 µM) | 0.78 (≈ 1.95 µM) | 0.78 (≈ 1.95 µM) | 1.56 (≈ 3.9 µM) | 12.5 (≈ 31.3 µM) | 6.25 (≈ 15.6 µM) | 100 (≈ 250 µM) | 100 (≈ 250 µM) | 100 (≈ 250 µM) | 0.1 (≈ 0.25 µM) | 0.1 (≈ 0.25 µM) | 100 (≈ 250 µM) | 0.39 (≈ 0.976 µM) | > 100 | > 100 | > 100 | > 100 | > 200 | 25 (≈ 62.6 µM) | 0.1 (≈ 0.25 µM) | MIC [18]: > 200 µg/mL; MIC [19]: > 100 µg/mL; MIC (Enterobacter cloacae 963): 50 µg/mL (≈ 125 µM); MIC [20]: < 0.05 µg/mL; MIC [21]: 6.25 µg/mL (≈ 15.6 µM); MIC [22]: 6.25 µg/mL (≈ 15.6 µM); MIC [23]: 1.56 µg/mL; MIC [24]: 3.13 µg/mL (≈ 7.83 µM); MIC [25]: 6.25 µg/mL (≈ 15.6 µM) |
| [C-]#[N+]C12CC3(/C=C/C(=O)Nc4ccccc4Cl)OC3C1O2 (stereo not shown) [compound 42] | 0.39 (≈ 1.29 µM) | 1.56 (≈ 5.15 µM) | 0.39 (≈ 1.29 µM) | > 200 | > 200 | > 200 | 0.78 (≈ 2.58 µM) | 25 (≈ 82.6 µM) | 12.5 (≈ 41.3 µM) | 6.25 (≈ 20.6 µM) | 3.13 (≈ 10.3 µM) | 25 (≈ 82.6 µM) | 6.25 (≈ 20.6 µM) | > 200 | > 200 | > 200 | 3.13 (≈ 10.3 µM) | > 200 | 3.13 (≈ 10.3 µM) | 0.1 (≈ 0.33 µM) | MIC [18]: > 200 µg/mL; MIC [19]: > 200 µg/mL; MIC (Enterobacter cloacae 963): > 200 µg/mL; MIC [20]: < 0.05 µg/mL; MIC [21]: 1.56 µg/mL (≈ 5.15 µM); MIC [22]: 25 µg/mL (≈ 82.6 µM); MIC [23]: < 0.2 µg/mL; MIC [24]: 1.56 µg/mL (≈ 5.15 µM); MIC [25]: 3.13 µg/mL (≈ 10.3 µM) |
| [C-]#[N+]C12CC3(/C=C/C(=O)N[C@@H](Cc4ccccc4)C(=O)OCc4ccccc4)OC3C1O2 (stereo partly shown) [compound 31] | > 200 | > 200 | > 200 | > 200 | > 200 | > 200 | > 200 | > 200 | > 200 | > 200 | > 200 | > 200 | > 200 | > 200 | > 200 | > 200 | > 200 | > 200 | > 200 | > 200 | MIC [18]: > 200 µg/mL; MIC [19]: > 200 µg/mL; MIC (Enterobacter cloacae 963): > 200 µg/mL; MIC [20]: 6.25 µg/mL (≈ 14.5 µM); MIC [21]: > 200 µg/mL; MIC [22]: > 200 µg/mL; MIC [23]: > 100 µg/mL; MIC [24]: > 100 µg/mL; MIC [25]: > 100 µg/mL |
| [C-]#[N+]C12CC3(/C=C/C(=O)NC4C(=O)N5C4SC(C)(C)C5C(=O)OCC(=O)c4ccc(Br)cc4)OC3C1O2 (stereo not shown) [Compound No. 33] | 1.56 (≈ 2.65 µM) | 0.78 (≈ 1.33 µM) | 1.56 (≈ 2.65 µM) | 0.78 (≈ 1.33 µM) | 25 (≈ 42.5 µM) | 25 (≈ 42.5 µM) | 25 (≈ 42.5 µM) | 12.5 (≈ 21.2 µM) | 3.13 (≈ 5.32 µM) | 0.38 (≈ 0.646 µM) | 0.38 (≈ 0.646 µM) | 1.56 (≈ 2.65 µM) | 0.78 (≈ 1.33 µM) | > 200 | > 200 | > 200 | > 200 | > 200 | 100 (≈ 170 µM) | 1.56 (≈ 2.65 µM) | MIC [18]: > 100 µg/mL; MIC [19]: > 100 µg/mL; MIC (Enterobacter cloacae 963): 25 µg/mL (≈ 42.5 µM); MIC [20]: 3.13 µg/mL (≈ 5.32 µM); MIC [21]: 0.8 µg/mL (≈ 1.36 µM); MIC [22]: 0.8 µg/mL (≈ 1.36 µM); MIC [23]: < 0.2 µg/mL; MIC [24]: 1.56 µg/mL (≈ 2.65 µM); MIC [25]: 3.13 µg/mL (≈ 5.32 µM) |
